Source: ChEMBL document CHEMBL1275461, “Early bactericidal activity and pharmacokinetics of the diarylquinoline TMC207 in treatment of pulmonary tuberculosis” (Antimicrob Agents Chemother, 2008)
In brackets after ≈: the same amount, converted by molar mass. Activity calls are given as the source filed them. The calls are words filed in the database; no cut-off is given here.

Columns and labels:
[1] = tested on: Mycobacterium tuberculosis; assay: Antimicrobial activity against drug-resistant Mycobacterium tuberculosis; type: functional
[2] = tested on: Mycobacterium tuberculosis; assay: Bactericidal activity against Mycobacterium tuberculosis selected on 10 times compound MIC measured after 6 days; type: functional, organism-based
[3] = tested on: Mycobacterium tuberculosis; assay: Bactericidal activity against Mycobacterium tuberculosis selected on 100 times compound MIC measured after 6 days; type: functional, organism-based

Q: How did the MIC [1] turn out when `COc1nc2ccc(Br)cc2cc1[C@@H](c1ccccc1)[C@@](O)(CCN(C)C)c1cccc2ccccc12` [BEDAQUILINE] was run?
A: The MIC was 0.03 µg/mL (≈ 0.054 µM).

Q: And the Activity [2]?
A: Its Activity is “Active”.

Q: And the Activity [3]?
A: Its Activity is “Active”.
